Results published in patent US9993497B2, “Use of alginate compositions in preventing or reducing liver damage caused by a hepatotoxic agent” (HADASIT MEDICAL RESEARCH SERVICES AND DEVELOPMENT LTD., priority 2012, dated 2018).

Legend:
[1] = tested on: paracetamol intoxicated mice; test: Ki-67 staining of liver tissue (cell proliferation); assay type: in vivo, mice (C57BL/6); details: 4 mg paracetamol alone
Description: (§1) Briefly, necrosis staining was as follows: sections were first de-paraffinized and then were incubated with rabbit polyclonal IgG. Sections were then incubated with secondary antibody using the MACH 3 Rabbit HRP Polymer Detection and then dehydrated, cleared and mounted in synthetic resin. For color detection, DAB (3,3′-diaminobenzidine) was applied, followed by counterstaining Quantification of necrosis was carried out by the Ariol SL-50 system (Applied Imaging) on microscope slides. Nitrotyrosine and Ki-67 immunostaining staining was performed similarly, using a rabbit polyclonal anti-nitrotyrosine antibody (Abcam) or an anti-Ki-67 antibody (DAKO).

[2] = tested on: paracetamol intoxicated mice; test: Nitrotyrosine staining of liver tissue (oxidative stress); assay type: in vivo, mice (C57BL/6); details: 4 mg paracetamol alone
Description: as §1

## CC(=O)Nc1ccc(O)cc1 [paracetamol, N-acetyl-p-aminophenol]
[1]
  Cell proliferation in the liver (Ki-67 staining): widespread cell proliferation in the liver
[2]
  Nitrotyrosine staining in liver: extensive centrilobular nitrotyrosine staining
